Data: patent publication US20080026076A1 (priority 2003, published 2008)
Entries after “also recorded” stand apart in the source; their conditions may differ. Marks after values point to notes of the source that are not given here.

What was measured:
[1] = system: rats with abdominal aortic constriction (AAC) or sham operated; experiment: Post-sacrifice morphometric measurements (body, heart and organ weights, heart rate) to assess cardiac hypertrophy; type: in vivo, rat; conditions: for Heart wt.: quercetin diet, mean ± SEM
Description: In this procedure the abdominal aorta is constricted to increase the afterload on the heart and produce pressure overload. […] Rats consumed this diet for 7 days.
On the 8th day, 5 rats were surgically modeled for pressure overload by constricting the abdominal aorta to a diameter of 0.63 mm with a Weck hemoclip. The other 5 rats were sham operated (anesthetized and the aorta exposed, but not constricted). […] Another group of 10 rats were placed on a standard diet with no supplement and treated in an identical fashion with 5 surgically modeled for pressure overload and 5 sham operated. […] Two weeks after surgery post-sacrifice morphometric measurements are obtained by measuring total heart weight, left ventricle weight, and calculating heart:body weight and left ventricle:body weight ratios to assess cardiac mass and cardiac hypertrophy.
Post-sacrifice morphometric measurements are obtained by measuring body weight, total heart weight, calculating heart:body weight ratios and heart rate to assess cardiac mass and cardiac hypertrophy.

PKC α, βI, ε, δ = experiment: PKC isoform activation in left ventricle, Western blots; type: in vivo, rat; conditions: between all groups (SH, AAC, SHQ, AACQ)
Description: Following the experimental period, rats were sacrificed, left ventricles were homogenized, and cytosolic & membrane cell fractions isolated using differential centrifugation as previously described (Jalili et al., 1999). Immunobloting using standard protocols was used to assess PKC distribution. […] Increased abundance in membrane bound fractions is indicative of PKC activation.
Western blotting, transfer and densitometry: Electrophoresis and transfer of proteins to PVDF membranes were done as previously described (18, 19). Primary antibody directed against PKC α, βI, βII, δ, and ε (Santa Cruz Biotechnology, Santa Cruz, Calif.) were incubated overnight at 4° C. in a 1:1000 dilution. Antibodies directed against phospho ERK 1/2, phospho JNK, ph c-Raf (Cell Signal Technology, Beverly, Mass.), and phospho PKC P (Santa Cruz Biotechnology, Santa Cruz, Calif.), were incubated at a 1:1000 dilution for 48 h at 4° C. in 5% BSA Tris buffer with 0.05% Tween-20. Secondary antibody conjugated to horseradish peroxidase (goat anti rabbit, (Cell Signal Technology, Beverly, Mass.)) was incubated for 1 h at 1:10,000 dilution. Signals were visualized by enhanced chemiluminescence (Cell Signal Technology, Beverly, Mass.). Relative band density of immunoblots on film were measured with a scanner using NIH 1.63 image software (National Institutes of Health, Rockville, Md.).

[2] = system: spontaneously hypertensive rats; experiment: Blood pressure in spontaneously hypertensive (SH) rats; type: in vivo, rat
Procedure: As described herein, this strain is well documented to have normal blood pressure until about 5-6 weeks of age (Makita and Yasuda, 1990). After about 5-6 weeks, the rats suffer from steadily increasing blood pressure from about 6 weeks of age until peaking at about 12-15 weeks of age.
Blood pressure was measured in SHR and SHRQ rats by lightly anesthetizing the animals using ketamine/xylazine (75/3.75 mg/kg i.p.). Rats were prewarmed for 15 minutes on heated platform and blood pressure was measured using a Visitech BP 2000 blood pressure system. Pressure measurements are reported as the average of between 4 and 8 separate measurements taken over a 70 second period. All rats fully recovered within […] after receiving anesthesia.
Blood pressure blood pressure was measured for each group at 6, 7.5, 9 and 10 weeks. Dietary supplement was initiated at 5 weeks and maintained throughout the experiment.
In a separate experiment using SH rats (dietary supplement was likewise initiated at 5 weeks), blood pressure was measured at 17 weeks.

[3] = system: prehypertensive and stage 1 hypertensive human subjects; experiment: Randomized, placebo-controlled, double-blind crossover trial: blood pressure; type: in vivo; conditions: for Diastolic blood pressure, Endpoint / MAP, Endpoint / Systolic blood pressure, Endpoint: end of 4-week quercetin phase, 730 mg/day, mean ± SEM; for quercetin induced-lowering of systolic blood pressure: change from baseline
Description: Systemic markers of oxidant load also were examined as secondary outcomes to determine if reductions in blood pressure were associated with lower indices of oxidative stress. This study was approved by the University of Utah Human Use Review Committee, University of Utah Institutional Review Board, and written informed consent was obtained from each participant. Recruitment efforts in the greater Salt Lake City area targeted males and females with prehypertension (120-139 mmHg systolic/80-89 mmHg diastolic) and Stage 1 hypertension (140-159 mmHg systolic/90-99 mmHg diastolic) as defined by The 7th Report Of The Joint National Committee On Prevention, Detection, Evaluation, And Treatment Of High Blood Pressure (32). […] The secondary hypothesis was that quercetin-induced reductions in blood pressure would be associated with lower indices of systemic oxidant stress. […] A 14-day washout period separated the two phases. Subjects were randomly assigned to begin either the quercetin or the placebo phase first. […] Clinic visits were conducted on overnight-fasted subjects in the morning hours at the beginning and end of the placebo and quercetin supplementation phases. Subjects were instructed not to exercise prior to their appointments. […] Blood pressure was a primary outcome variable and was obtained at each clinic visit by a trained observer using an Omron random zero automatic blood pressure analyzer as previously described (35). Each participant sat quietly for 5-10 minutes, after which their arm was placed at heart level and blood pressure and pulse rate were determined at least three times in 3-5 minute intervals. If blood pressure varied among these determinations by more than 10 mmHg, three additional trials were performed. The accumulated measurements then were averaged to determine overall systolic and diastolic pressure and pulse rate for each subject.

[4] = Trial: fasting blood lipids and glucose (Cholestech LDX); type: in vivo, human; conditions: after quercetin supplementation compared to placebo (data not shown)
Procedure: During each patient visit whole blood (˜50 μL) was obtained from a digit puncture to determine blood lipids (LDL, VLDL, HDL, total cholesterol) and glucose using a clinical Cholestech LDX blood analyzer (37). Prior to each patient visit, first morning urine was collected, brought to the laboratory, and stored at −80° C. for later analysis of isoprostane concentrations.

normotensive individuals = conditions: 1000 mg/day of quercetin for one month (Conquer et al.); cited from earlier work
[5] = 30 mg/kg quercetin (p.o.) in rats (ref. 61); cited from earlier work
PKC = conditions: cytosol and membrane fraction of cells from thyroid, brain, liver, fibroblasts; μM concentrations of quercetin; cited from earlier work
[6] = 1.5 g/kg chow quercetin from 5 weeks of age, measured at 6 to 10 weeks, vs control diet

Structure (SMILES): O=c1c(O)c(-c2ccc(O)c(O)c2)oc2cc(O)cc(O)c12 [quercetin, 3,5,7,3′,4′-pentahydroxyflavone]
- Heart wt. ([1]; AAC + Q (n = 9)): 1.18 ± 0.03^b g
- cardiac hypertrophy ([1]; AAC-Q rats compared with AAC and sham rats, two weeks after surgery): lower level of cardiac hypertrophy; also recorded: levels of hypertrophy in between S and AAC rats
- Heart wt. ([1]; Sham + Q (n = 10)): 1.01 ± 0.03^a g
- Activation of PKC α, βI, ε, or δ isoforms (PKC α, βI, ε, δ): no significant differences
- onset of hypertension ([2]; 1.5 g quercetin/kg diet from 5 weeks of age): delayed the onset of hypertension
- diastolic pressure [2, 6]: did not show a statistically significant changed
- mean arterial pressure [2, 6]: did not show a statistically significant changed
- systolic blood pressure [2, 6]: decreased systolic blood pressure
- blood pressure at 17 weeks ([2]; separate experiment, supplement from 5 weeks, control vs quercetin treated): No significant difference in blood pressure
- Diastolic blood pressure, Endpoint ([3]; prehypertensive (n=22), baseline 85 ± 1): 83 ± 2 mmHg
- MAP, Endpoint ([3]; prehypertensive (n=22), baseline 101 ± 1): 98 ± 2 mmHg
- Systolic blood pressure, Endpoint ([3]; prehypertensive (n=22), baseline 133 ± 2): 128 ± 3 mmHg
- quercetin induced-lowering of systolic blood pressure ([3]; prehypertensive): −5.2 mmHg
- Diastolic blood pressure, Endpoint ([3]; stage 1 hypertensive (n=22), baseline 97 ± 1): 92 ± 2 mmHg
- MAP, Endpoint ([3]; stage 1 hypertensive (n=22), baseline 113 ± 1): 108 ± 2 mmHg
- Systolic blood pressure, Endpoint ([3]; stage 1 hypertensive (n=22), baseline 145 ± 2): 138 ± 2 mmHg
- quercetin induced-lowering of systolic blood pressure ([3]; stage 1 hypertensive): −7.2 mmHg
- carryover antihypertensive effect: mean arterial pressure at baseline of quercetin phase vs placebo phase ([3]; subjects that received quercetin treatment first): No differences were found
- Fasting blood glucose levels [4]: unchanged
- blood pressure (normotensive individuals): no changes in blood pressure
- plasma quercetin concentrations (normotensive individuals): 427 ± 89 ng/mL
- hypertensive response to i.v. administration of angiotensin II [5]: significantly blunted the hypertensive response
- PKC activity (PKC): inhibition of PKC activity
